{
  "source": "ChEMBL document CHEMBL4152249",
  "about": "“Alkoxyphenylthiazoles with broad-spectrum activity against multidrug-resistant gram-positive bacterial pathogens” (Eur J Med Chem, 2018)",
  "key": {"Staphylococcus aureus [1]": {"system": "Staphylococcus aureus", "assay": "Bactericidal activity against Staphylococcus aureus USA300 NRS384 incubated for 20 hrs followed by re-plating on tryptic soy agar plates at 37 degC for 18 hrs by broth microdilution assay", "type": "functional"}, "Enterococcus faecalis [2]": {"system": "Enterococcus faecalis", "assay": "Bactericidal activity against vancomycin-resistant Enterococcus faecalis ATCC 51299 incubated for 20 hrs followed by re-plating on tryptic soy agar plates at 37 degC for 18 hrs by broth microdilution assay", "type": "functional"}, "Staphylococcus aureus [3]": {"system": "Staphylococcus aureus", "assay": "Bactericidal activity against vancomycin-resistant Staphylococcus aureus VRSA12 incubated for 20 hrs followed by re-plating on tryptic soy agar plates at 37 degC for 18 hrs by broth microdilution assay", "type": "functional"}, "Streptococcus pneumoniae [4]": {"system": "Streptococcus pneumoniae", "assay": "Bactericidal activity against cephalosporin-resistant Streptococcus pneumoniae ATCC 51916 incubated for 20 hrs followed by re-plating on tryptic soy agar plates at 37 degC for 18 hrs by broth microdilution assay", "type": "functional"}, "Streptococcus pneumoniae [5]": {"system": "Streptococcus pneumoniae", "assay": "Bactericidal activity against methicillin-resistant Streptococcus pneumoniae ATCC 700677 incubated for 20 hrs followed by re-plating on tryptic soy agar plates at 37 degC for 18 hrs by broth microdilution assay", "type": "functional"}, "[6]": {"system": "Staphylococcus epidermidis", "assay": "Antibacterial activity against methicillin-resistant Staphylococcus epidermidis NRS101 after 20 hrs by broth microdilution assay", "type": "functional", "settings": "NRS101, 20 h"}, "Caco-2": {"system": "Caco-2", "assay": "Cytotoxicity against human Caco2 cells assessed as effect on cell viability up to 64 ug/ml after 2 hrs by MTS assay", "type": "cell-based", "settings": "caco-2, 2 h"}, "Staphylococcus aureus [7]": {"system": "Staphylococcus aureus", "assay": "Bactericidal activity against methicillin-resistant Staphylococcus aureus NRS385 incubated for 20 hrs followed by re-plating on tryptic soy agar plates at 37 degC for 18 hrs by broth microdilution assay", "type": "functional"}, "Staphylococcus aureus [8]": {"system": "Staphylococcus aureus", "assay": "Antibacterial activity against methicillin-resistant Staphylococcus aureus NRS386 after 20 hrs by broth microdilution assay", "type": "functional", "settings": "NRS386, 20 h"}, "Listeria monocytogenes [9]": {"system": "Listeria monocytogenes", "assay": "Antibacterial activity against Listeria monocytogenes ATCC 19111 after 20 hrs by broth microdilution assay", "type": "functional", "settings": "ATCC 19111, 20 h"}, "Staphylococcus aureus [10]": {"system": "Staphylococcus aureus", "assay": "Antibacterial activity against vancomycin-resistant Staphylococcus aureus VRSA10 after 20 hrs by broth microdilution assay", "type": "functional", "settings": "VRSA10, 20 h"}, "Streptococcus pneumoniae [11]": {"system": "Streptococcus pneumoniae", "assay": "Antibacterial activity against methicillin-resistant Streptococcus pneumoniae ATCC 700677 after 20 hrs by broth microdilution assay", "type": "functional", "settings": "ATCC 700677, 20 h"}, "Staphylococcus aureus [12]": {"system": "Staphylococcus aureus", "assay": "Bactericidal activity against Staphylococcus aureus USA400 NRS123 incubated for 20 hrs followed by re-plating on tryptic soy agar plates at 37 degC for 18 hrs by broth microdilution assay", "type": "functional"}, "[13]": {"assay": "Selectivity index, ratio of compound effect for human Caco2 cells at maximum non-toxic concentration concentration to MIC for cephalosporin-resistant Streptococcus pneumoniae ATCC 51916", "type": "toxicity", "settings": "Caco-2 cells, read-out: Selectivity Index"}, "Enterococcus faecium [14]": {"system": "Enterococcus faecium", "assay": "Bactericidal activity against vancomycin-resistant Enterococcus faecium ATCC 700221 incubated for 20 hrs followed by re-plating on tryptic soy agar plates at 37 degC for 18 hrs by broth microdilution assay", "type": "functional"}, "Staphylococcus aureus [15]": {"system": "Staphylococcus aureus", "assay": "Bactericidal activity against methicillin-resistant Staphylococcus aureus NRS386 incubated for 20 hrs followed by re-plating on tryptic soy agar plates at 37 degC for 18 hrs by broth microdilution assay", "type": "functional"}, "[16]": {"assay": "Selectivity index, ratio of compound effect for human Caco2 cells at maximum non-toxic concentration concentration to MIC for vancomycin-resistant Enterococcus faecium ATCC 700221", "type": "toxicity", "settings": "Caco-2 cells, read-out: Selectivity Index"}, "Staphylococcus aureus [17]": {"system": "Staphylococcus aureus", "assay": "Bactericidal activity against linezolid-resistant Staphylococcus aureus NRS119 incubated for 20 hrs followed by re-plating on tryptic soy agar plates at 37 degC for 18 hrs by broth microdilution assay", "type": "functional"}, "Staphylococcus aureus [18]": {"system": "Staphylococcus aureus", "assay": "Bactericidal activity against Staphylococcus aureus USA400 assessed as reduction in colony forming unit at 3 times MIC treated for 4 hrs followed by re-plating on tryptic soy agar plates at 37 degC for 18 to 20 hrs by broth microdilution assay", "type": "functional", "design": "scale not given: the % may be the effect or the level left"}, "[19]": {"system": "Staphylococcus epidermidis", "assay": "Bactericidal activity against methicillin-resistant Staphylococcus epidermidis NRS101 incubated for 20 hrs followed by re-plating on tryptic soy agar plates at 37 degC for 18 hrs by broth microdilution assay", "type": "functional"}, "Staphylococcus aureus [20]": {"system": "Staphylococcus aureus", "assay": "Antibacterial activity against methicillin-resistant Staphylococcus aureus NRS385 after 20 hrs by broth microdilution assay", "type": "functional", "settings": "NRS385, 20 h"}, "Staphylococcus aureus [21]": {"system": "Staphylococcus aureus", "assay": "Bactericidal activity against methicillin-sensitive Staphylococcus aureus NRS107 incubated for 20 hrs followed by re-plating on tryptic soy agar plates at 37 degC for 18 hrs by broth microdilution assay", "type": "functional"}, "Staphylococcus aureus [22]": {"system": "Staphylococcus aureus", "assay": "Antibacterial activity against Staphylococcus aureus after 20 hrs by broth microdilution assay", "type": "functional"}, "Staphylococcus aureus [23]": {"system": "Staphylococcus aureus", "assay": "Bactericidal activity against vancomycin-resistant Staphylococcus aureus VRSA10 incubated for 20 hrs followed by re-plating on tryptic soy agar plates at 37 degC for 18 hrs by broth microdilution assay", "type": "functional"}, "Staphylococcus aureus [24]": {"system": "Staphylococcus aureus", "assay": "Antibacterial activity against methicillin-resistant Staphylococcus aureus after 20 hrs by broth microdilution assay", "type": "functional"}, "Staphylococcus aureus [25]": {"system": "Staphylococcus aureus", "assay": "Antibacterial activity against methicillin-resistant Staphylococcus aureus USA400 NRS123 assessed as ratio of MIC after and before 14 passages over 2 weeks by broth microdilution method", "type": "functional"}, "[26]": {"assay": "Selectivity index, ratio of compound effect for human Caco2 cells at maximum non-toxic concentration concentration to MIC for methicillin-resistant Staphylococcus epidermidis NRS101", "type": "toxicity", "settings": "Caco-2 cells, read-out: Selectivity Index"}, "Enterococcus faecalis [27]": {"system": "Enterococcus faecalis", "assay": "Antibacterial activity against vancomycin-resistant Enterococcus faecalis ATCC 51299 after 20 hrs by broth microdilution assay", "type": "functional", "settings": "ATCC 51299, 20 h"}, "[28]": {"assay": "Selectivity index, ratio of compound effect for human Caco2 cells at maximum non-toxic concentration concentration to MIC for methicillin-resistant Streptococcus pneumoniae ATCC 700677", "type": "toxicity", "settings": "Caco-2 cells, read-out: Selectivity Index"}, "Staphylococcus aureus [29]": {"system": "Staphylococcus aureus", "assay": "Bactericidal activity against Staphylococcus aureus USA400 assessed as reduction in colony forming unit at 6 times MIC treated for 2 hrs followed by re-plating on tryptic soy agar plates at 37 degC for 18 to 20 hrs by broth microdilution assay", "type": "functional", "design": "scale not given: the % may be the effect or the level left"}, "Streptococcus pneumoniae [30]": {"system": "Streptococcus pneumoniae", "assay": "Antibacterial activity against cephalosporin-resistant Streptococcus pneumoniae ATCC 51916 after 20 hrs by broth microdilution assay", "type": "functional", "settings": "ATCC 51916, 20 h"}, "Staphylococcus aureus [31]": {"system": "Staphylococcus aureus", "assay": "Antibacterial activity against vancomycin-resistant Staphylococcus aureus VRSA12 after 20 hrs by broth microdilution assay", "type": "functional", "settings": "VRSA12, 20 h"}, "Listeria monocytogenes [32]": {"system": "Listeria monocytogenes", "assay": "Bactericidal activity against Listeria monocytogenes ATCC 19111 incubated for 20 hrs followed by re-plating on tryptic soy agar plates at 37 degC for 18 hrs by broth microdilution assay", "type": "functional"}, "Enterococcus faecalis [33]": {"system": "Enterococcus faecalis", "assay": "Ratio of MBC to MIC for vancomycin-resistant Enterococcus faecalis ATCC 51299", "type": "functional"}, "[34]": {"assay": "Selectivity index, ratio of compound effect for human Caco2 cells at maximum non-toxic concentration concentration to MIC for vancomycin-resistant Enterococcus faecalis ATCC 51299", "type": "toxicity", "settings": "Caco-2 cells, read-out: Selectivity Index"}, "Listeria monocytogenes [35]": {"system": "Listeria monocytogenes", "assay": "Ratio of MBC to MIC for Listeria monocytogenes ATCC 19111", "type": "functional"}, "Staphylococcus aureus [36]": {"system": "Staphylococcus aureus", "assay": "Antibacterial activity against methicillin-resistant Staphylococcus aureus 2658 RCMB after 20 hrs by broth microdilution assay", "type": "functional"}, "[37]": {"assay": "Selectivity index, ratio of compound effect for human Caco2 cells at maximum non-toxic concentration concentration to MIC for Listeria monocytogenes ATCC 19111", "type": "toxicity", "settings": "Caco-2 cells, read-out: Selectivity Index"}, "Enterococcus faecium [38]": {"system": "Enterococcus faecium", "assay": "Antibacterial activity against vancomycin-resistant Enterococcus faecium ATCC 700221 after 20 hrs by broth microdilution assay", "type": "functional", "settings": "ATCC 700221, 20 h"}},
  "data": [
    {"smiles": "CCCCCCCOc1ccc(-c2nc(C)c(-c3ccnc(NC(=N)N4CCN(C)CC4)n3)s2)cc1", "values": [
      {"measurement": "MBC", "setting": "Staphylococcus aureus [1]", "result": 8, "unit": "µg/mL"},
      {"measurement": "MBC", "setting": "Enterococcus faecalis [2]", "result": 16, "unit": "µg/mL"},
      {"measurement": "MBC", "setting": "Staphylococcus aureus [3]", "result": 8, "unit": "µg/mL"},
      {"measurement": "MBC", "setting": "Streptococcus pneumoniae [4]", "result": 16, "unit": "µg/mL"},
      {"measurement": "MBC", "setting": "Streptococcus pneumoniae [5]", "result": 16, "unit": "µg/mL"},
      {"measurement": "MIC", "setting": "[6]", "result": 8, "unit": "µg/mL"},
      {"measurement": "Activity", "setting": "Caco-2", "result": "Non-Toxic"},
      {"measurement": "MBC", "setting": "Staphylococcus aureus [7]", "result": 8, "unit": "µg/mL"},
      {"measurement": "MIC", "setting": "Staphylococcus aureus [8]", "result": 8, "unit": "µg/mL"},
      {"measurement": "MIC", "setting": "Listeria monocytogenes [9]", "result": 4, "unit": "µg/mL"},
      {"measurement": "MIC", "setting": "Staphylococcus aureus [10]", "result": 8, "unit": "µg/mL"},
      {"measurement": "MIC", "setting": "Streptococcus pneumoniae [11]", "result": 16, "unit": "µg/mL"},
      {"measurement": "MBC", "setting": "Staphylococcus aureus [12]", "result": 8, "unit": "µg/mL"},
      {"measurement": "selectivity ratio", "setting": "[13]", "result": "7 to 82"},
      {"measurement": "MBC", "setting": "Enterococcus faecium [14]", "result": 8, "unit": "µg/mL"},
      {"measurement": "MBC", "setting": "Staphylococcus aureus [15]", "result": 8, "unit": "µg/mL"},
      {"measurement": "selectivity ratio", "setting": "[16]", "result": "7 to 82"},
      {"measurement": "MBC", "setting": "Staphylococcus aureus [17]", "result": 8, "unit": "µg/mL"},
      {"measurement": "Activity", "setting": "Staphylococcus aureus [18]", "result": 100, "unit": "%"},
      {"measurement": "MBC", "setting": "[19]", "result": 8, "unit": "µg/mL"},
      {"measurement": "MIC", "setting": "Staphylococcus aureus [20]", "result": 8, "unit": "µg/mL"},
      {"measurement": "MBC", "setting": "Staphylococcus aureus [21]", "result": 8, "unit": "µg/mL"},
      {"measurement": "MIC", "setting": "Staphylococcus aureus [22]", "result": 8, "unit": "µg/mL"},
      {"measurement": "MBC", "setting": "Staphylococcus aureus [23]", "result": 8, "unit": "µg/mL"},
      {"measurement": "MIC", "setting": "Staphylococcus aureus [24]", "result": 8, "unit": "µg/mL"},
      {"measurement": "Ratio", "setting": "Staphylococcus aureus [25]", "result": 1},
      {"measurement": "selectivity ratio", "setting": "[26]", "result": "7 to 82"},
      {"measurement": "MIC", "setting": "Enterococcus faecalis [27]", "result": 8, "unit": "µg/mL"},
      {"measurement": "selectivity ratio", "setting": "[28]", "result": "7 to 82"},
      {"measurement": "Activity", "setting": "Staphylococcus aureus [29]", "result": 100, "unit": "%"},
      {"measurement": "MIC", "setting": "Streptococcus pneumoniae [30]", "result": 16, "unit": "µg/mL"},
      {"measurement": "MIC", "setting": "Staphylococcus aureus [31]", "result": 8, "unit": "µg/mL"},
      {"measurement": "MBC", "setting": "Listeria monocytogenes [32]", "result": 8, "unit": "µg/mL"},
      {"measurement": "Ratio", "setting": "Enterococcus faecalis [33]", "result": 1},
      {"measurement": "selectivity ratio", "setting": "[34]", "result": "7 to 82"},
      {"measurement": "Ratio", "setting": "Listeria monocytogenes [35]", "result": 1},
      {"measurement": "MIC", "setting": "Staphylococcus aureus [36]", "result": 0.78, "unit": "µg/mL"},
      {"measurement": "selectivity ratio", "setting": "[37]", "result": "7 to 82"},
      {"measurement": "MIC", "setting": "Enterococcus faecium [38]", "result": 8, "unit": "µg/mL"}
    ]}
  ]
}
